In US12115233B2, “Imaging and radiotherapeutics agents targeting fibroblast-activation protein-α (FAP-α)” (The Johns Hopkins University, priority 2017, dated 2024):

Assays:
[1] = Small-animal NIRF imaging, tracer clearance; format: in vivo, NOD/SKID mice; details: after one hour of distribution
Description: (§1) 1.7 Small-Animal Near Infrared Fluorescence (NIRF) Imaging. NIRF images were acquired on the LI-COR Pearl Impulse Imager using an excitation wavelength of 785 nm and a detection wavelength of 800 nm. Mice utilized for imaging studies were anesthetized with 3% isofluorane (v/v) and maintained at 1.5% isofluorane for the imaging procedure. NOD/SKID mice bearing FAP+ U-87-MG and FAP-PC-3 tumor xenografts were injected with 10 nmol of XY-FAP-01 via tail vein injection and images were acquired at 30 min, 1 h, 2 h, 2.5 h, and 4 h after injection of tracer.
(§2) 1.11 Xenograft Tumor Model. 6-week old female NOD/SCID mice were subcutaneously injected in the upper left and right flanks with 1 million U87(FAP+) cells and PC3 cells (FAP-) in RPMI 1640 media supplemented with 1% FBS. Mice were monitored for tumor size and used for optical or SPECT/CT imaging when the size of tumor reached around 100 mm3.

[2] = test system: FAP-negative cell lines (PC3, NCIH226, and HCT116); experiment: Cellular uptake of XY-FAP-01 in FAP-negative cell lines (fluorescence imaging); format: cell-based, human; details: all concentrations (50 nM to 0.78 nM)
Description: (§3) 1.5 Cell lines. Six human cancer cell lines were used to assess binding to FAP: glioblastoma (U-87-MG), melanoma (SK-MEL-24), prostate (PC-3), non-small cell lung cancer (NCI-H2228), colorectal carcinoma (HCT 116), and lung squamous cell carcinoma (NCI-H226). From the literature, U-87-MG, SK-MEL-24, and NCI-H2228 cell lines were identified as having high levels of FAP expression [FAP-positive (+)] whereas PC-3, NCI-H226, and HCT 116 cells expressed very low levels of FAP [FAP-negative(−)]. These expression profiles were further confirmed via flow cytometry with an APC-conjugated anti-FAP antibody (R&D Systems, Minneapolis, MN) and quantitative real-time PCR. All cell lines were purchased from American Type Culture Collection (ATCC, Manassas, VA).
1.6 Cellular Uptake Studies. All cellular uptake and specific binding studies were performed in triplicate to ensure reproducibility. Cells were detached using 0.05% trypsin (Corning), resuspended in 1 million cell aliquots in binding buffer, and incubated with various concentrations (range, 50 nM to 0.78 nM) of XY-FAP-01 for 1 hour at 37° C. and 5% CO2. […] Cellular uptake was terminated by washing cells with ice cold PBS (1×) three times. […] Images were analyzed using the LI-COR Pearl Impulse Software (Version 2.0) and fluorescence intensity was corrected for background signal and normalized to well area.

[3] = test system: FAP+ U-87-MG tumor xenograft; experiment: Small-animal NIRF imaging, FAP positive xenograft; format: in vivo, NOD/SKID mice
Description: as §1, §2

human recombinant FAP = target: T1, human recombinant FAP (Homo sapiens, UniProt Q12884); experiment: FAP Inhibition Assay (fluorogenic FAP Assay Kit); format: biochemical; details: DPP substrate, 10 minutes at room temperature, Ki from IC50 by Cheng-Prusoff conversion, read-out: enzyme inhibitory constant (Ki)
T1 construct: purchased BPS Bioscience, San Diego, CA
T1 sequence (Q12884 26-760 limits assumed): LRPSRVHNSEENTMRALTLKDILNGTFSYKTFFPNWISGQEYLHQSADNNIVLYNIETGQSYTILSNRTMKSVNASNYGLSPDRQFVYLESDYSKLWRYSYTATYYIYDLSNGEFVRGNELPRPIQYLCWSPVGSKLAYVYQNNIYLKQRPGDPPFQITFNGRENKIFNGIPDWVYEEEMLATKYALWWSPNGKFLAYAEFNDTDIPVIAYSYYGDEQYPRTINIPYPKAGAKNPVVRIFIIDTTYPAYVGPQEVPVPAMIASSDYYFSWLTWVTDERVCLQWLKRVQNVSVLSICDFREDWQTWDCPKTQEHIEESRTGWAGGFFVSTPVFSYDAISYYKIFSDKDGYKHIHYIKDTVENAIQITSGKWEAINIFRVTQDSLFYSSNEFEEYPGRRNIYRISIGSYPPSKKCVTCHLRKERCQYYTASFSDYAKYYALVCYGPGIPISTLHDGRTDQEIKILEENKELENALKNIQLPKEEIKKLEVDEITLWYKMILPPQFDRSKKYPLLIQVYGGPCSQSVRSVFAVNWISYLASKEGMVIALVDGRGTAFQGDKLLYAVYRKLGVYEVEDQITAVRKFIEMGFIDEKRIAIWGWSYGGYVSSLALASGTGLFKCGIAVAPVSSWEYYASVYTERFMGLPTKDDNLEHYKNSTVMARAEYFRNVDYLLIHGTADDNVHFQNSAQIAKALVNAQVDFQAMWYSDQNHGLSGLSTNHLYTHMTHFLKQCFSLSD
Description: 1.4 FAP Inhibition Assay. The inhibitory activity of XY-FAP-01 was determined using a fluorogenic FAP Assay Kit (BPS Bioscience, San Diego, CA). Briefly, XY-FAP-01, DPP substrate, and human recombinant FAP were loaded into a 96 well plate to initiate the enzyme reaction. The reaction was left for 10 minutes at room temperature before fluorescence was measured with a VICTOR3 V multilabel plate reader (PerkinElmer Inc., Waltham, MA). Data was normalized and semi-log inhibition curves were generated in order to determine the IC50 value (concentration of XY-FAP-01 where the enzyme activity is 50% inhibited) for XY-FAP-01 and subsequent enzyme inhibition constant (Ki) using the Cheng-Prusoff conversion. Generation of semi-log inhibition curves and IC50 values were done using GraphPad Prism (San Diego, CA).

FAP-PC-3 tumor xenograft = experiment: Small-animal NIRF imaging, FAP negative xenograft; format: in vivo, NOD/SKID mice; details: all imaging time points (30 min to 4 h)
Description: as §1, §2

[4] = test system: FAP-positive cell lines (NCIH2228, U87, and SKMEL24); experiment: Cellular uptake of XY-FAP-01 in FAP-positive cell lines (fluorescence imaging); format: cell-based, human
Description: as §3
1.6 Cellular Uptake Studies. All cellular uptake and specific binding studies were performed in triplicate to ensure reproducibility. Cells were detached using 0.05% trypsin (Corning), resuspended in 1 million cell aliquots in binding buffer, and incubated with various concentrations (range, 50 nM to 0.78 nM) of XY-FAP-01 for 1 hour at 37° C. and 5% CO2. […] Cellular uptake was terminated by washing cells with ice cold PBS (1×) three times. Cells were resuspended in binding buffer and transferred to a 96-well plate for imaging. Images were acquired on the LI-COR Pearl Impulse Imager (Lincoln, NE) using an excitation wavelength of 785 nm and detection of the emission wavelength at 800 nm. Images were analyzed using the LI-COR Pearl Impulse Software (Version 2.0) and fluorescence intensity was corrected for background signal and normalized to well area.

With `CC1(C)C(=CC=C2CCCC(C=CC3=[N+](CCCCCC(=O)NCCCOc4ccc5nccc(C(=O)NCC(=O)N6CCC[C@H]6C#N)c5c4)c4ccc(S(=O)(=O)[O-])cc4C3(C)C)=C2Oc2ccc(S(=O)(=O)O)cc2)N(CCCCS(=O)(=O)O)c2ccc(S(=O)(=O)O)cc21` [XY-FAP-01] the “tracer clearance (NIRF)” value [1] was “tracer clearance via the bladder was observed”, the “binding of XY-FAP-01 in FAP-negative cell lines” value [2] was “no significant binding” and the “tracer uptake in U-87-MG xenograft (NIRF)” value ([3]; 10 nmol via tail vein, as early as 30 minutes post injection) was “specific uptake”. For the same compound, the “tracer uptake in the positive xenograft (NIRF)” value ([3]; after four hours of distribution) was “retained”, the “uptake in vivo on FAP-α+ U87 tumor” value ([3]; summary statement) was “selective uptake” and the Ki (human recombinant FAP) was 1.26 nM. The “tracer uptake in the FAP negative tumor (NIRF)” value (FAP-PC-3 tumor xenograft) was “no significant uptake”, the “uptake of XY-FAP-01 in FAP-positive cell lines” value ([4]; 50 nM to 0.78 nM, 1 hour at 37° C.) was “concentration dependent uptake” and the “XY-FAP-01 binding when preblocked with a DPP-IV specific inhibitor” value ([4]; FAP-positive cell lines, 25 nM tracer, preblock with Sitagliptin) was “did not result in a change of binding ability”. For the same compound, the “concentration at which saturated binding was observed” value ([4]; FAP-positive cell lines, 1 hour at 37° C.) was 25 nM, the “XY-FAP-01 binding when preblocked with a FAP and DPP-IV specific inhibitor” value ([4]; FAP-positive cells, 25 nM tracer, preblock with Val-boroPro (Talabostat)) was “significantly inhibited” and the “uptake in vitro on FAP-α+ U87 cell line” value ([4]; summary statement) was “selective uptake”.
